{"source": "ChEMBL document CHEMBL1145380", "about": "“Optimization of 1,3,4-benzotriazepine-based CCK(2) antagonists to obtain potent, orally active inhibitors of gastrin-mediated gastric acid secretion” (J Med Chem, 2007)", "key": {"[1]": {"target": "T1, Gastrin/cholecystokinin type B receptor (Rattus norvegicus, UniProt P30553)", "T1 sequence (P30553 whole entry)": "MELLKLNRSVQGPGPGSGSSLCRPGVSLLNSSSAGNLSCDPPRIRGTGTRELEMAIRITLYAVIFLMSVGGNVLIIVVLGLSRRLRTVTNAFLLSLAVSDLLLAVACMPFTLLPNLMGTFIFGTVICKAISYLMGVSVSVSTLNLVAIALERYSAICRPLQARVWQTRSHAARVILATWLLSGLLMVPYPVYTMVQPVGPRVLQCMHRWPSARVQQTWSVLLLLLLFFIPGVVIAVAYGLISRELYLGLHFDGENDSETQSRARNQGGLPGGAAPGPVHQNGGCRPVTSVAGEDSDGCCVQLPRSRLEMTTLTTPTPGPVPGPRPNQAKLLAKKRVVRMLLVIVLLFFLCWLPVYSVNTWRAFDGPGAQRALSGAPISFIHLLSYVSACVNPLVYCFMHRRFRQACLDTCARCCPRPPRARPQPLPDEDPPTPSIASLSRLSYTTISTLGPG", "test": "Antagonist activity at CCK2 receptor in perfused rat stomach assessed as inhibition of pentagastrin-stimulated gastric acid secretion", "type": "functional, tissue-based", "conditions": "read-out: pA2 (converted)"}, "[2]": {"target": "T2, Gastrin/cholecystokinin type B receptor (Homo sapiens, UniProt P32239)", "T2 sequence (P32239 whole entry)": "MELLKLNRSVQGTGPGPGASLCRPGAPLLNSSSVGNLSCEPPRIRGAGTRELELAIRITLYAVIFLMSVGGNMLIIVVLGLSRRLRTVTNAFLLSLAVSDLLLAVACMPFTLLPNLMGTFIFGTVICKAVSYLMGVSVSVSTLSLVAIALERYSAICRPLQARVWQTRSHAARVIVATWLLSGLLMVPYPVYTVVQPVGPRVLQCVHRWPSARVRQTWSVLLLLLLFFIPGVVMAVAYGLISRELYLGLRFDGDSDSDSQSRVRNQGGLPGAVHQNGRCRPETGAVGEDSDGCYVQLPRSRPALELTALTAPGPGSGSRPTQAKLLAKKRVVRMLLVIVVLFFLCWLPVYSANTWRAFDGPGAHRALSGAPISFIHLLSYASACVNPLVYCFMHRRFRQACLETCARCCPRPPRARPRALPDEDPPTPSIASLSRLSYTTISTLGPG", "test": "Displacement of [125I]BH-CCK-8S from human recombinant CCK2 receptor expressed in NIH3T3 cells"}, "[3]": {"target": "T3, Gastrin/cholecystokinin type B receptor (Canis lupus familiaris) (UniProt P30552)", "T3 sequence (whole entry)": "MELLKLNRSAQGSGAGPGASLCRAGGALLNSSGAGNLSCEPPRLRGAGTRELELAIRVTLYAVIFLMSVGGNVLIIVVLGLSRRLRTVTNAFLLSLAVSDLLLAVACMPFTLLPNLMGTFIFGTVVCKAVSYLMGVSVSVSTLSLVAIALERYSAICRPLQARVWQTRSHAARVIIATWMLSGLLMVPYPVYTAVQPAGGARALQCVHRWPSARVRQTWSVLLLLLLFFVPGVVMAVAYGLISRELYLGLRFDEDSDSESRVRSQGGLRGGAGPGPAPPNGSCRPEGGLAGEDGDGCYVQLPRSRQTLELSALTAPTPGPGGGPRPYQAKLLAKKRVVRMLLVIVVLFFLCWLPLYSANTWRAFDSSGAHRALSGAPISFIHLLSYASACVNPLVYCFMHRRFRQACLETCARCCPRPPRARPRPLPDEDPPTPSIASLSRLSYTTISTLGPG", "test": "Inhibition of pentagastrin-stimulated gastric acid secretion in iv dosed conscious gastric fistula dog", "type": "functional, organism-based", "conditions": "Stomach"}, "[4]": {"target": "T4, Cholecystokinin receptor type A (Homo sapiens, UniProt P32238)", "T4 sequence (P32238 whole entry)": "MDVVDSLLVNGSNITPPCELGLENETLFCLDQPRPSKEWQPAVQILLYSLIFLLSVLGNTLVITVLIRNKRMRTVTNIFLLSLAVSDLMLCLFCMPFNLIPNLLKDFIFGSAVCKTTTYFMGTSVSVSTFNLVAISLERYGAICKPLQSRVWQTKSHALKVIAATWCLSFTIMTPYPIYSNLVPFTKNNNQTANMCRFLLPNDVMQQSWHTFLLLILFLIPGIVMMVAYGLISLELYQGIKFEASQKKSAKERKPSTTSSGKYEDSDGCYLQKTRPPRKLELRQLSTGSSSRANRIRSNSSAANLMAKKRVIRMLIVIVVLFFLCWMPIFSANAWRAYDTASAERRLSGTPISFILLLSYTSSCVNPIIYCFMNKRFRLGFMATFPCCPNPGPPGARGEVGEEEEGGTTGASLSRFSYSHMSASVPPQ", "test": "Displacement of [3H]L-364718 from human recombinant CCK1 receptor expressed in PC3 cells", "type": "cell-based, PC-3"}, "[5]": {"target": "T5, Gastrin/cholecystokinin type B receptor (Canis lupus familiaris, UniProt P30552)", "T5 sequence (P30552 whole entry)": "T3 sequence (whole entry)", "test": "Displacement of [125I]BH-[…] from CCK2 receptor in canine gastric mucosa", "type": "tissue-based"}, "[6]": {"target": "T2, Gastrin/cholecystokinin type B receptor", "test": "Displacement of […] from human recombinant CCK2 receptor expressed in NIH3T3 cells", "type": "cell-based"}, "[7]": {"target": "T3, Gastrin/cholecystokinin type B receptor (Canis lupus familiaris)", "test": "Inhibition of pentagastrin-stimulated gastric acid secretion in intragastrically dosed conscious gastric fistula dog", "type": "functional, organism-based", "conditions": "Stomach"}, "[8]": {"target": "T4, Cholecystokinin receptor type A", "test": "Displacement of [3H]L-364718 from human recombinant CCK1 receptor expressed in CHOK1 cells", "type": "cell-based, CHO-K1"}, "[9]": {"test": "Half life beta in po dosed dog", "type": "ADME, organism-based, Canis lupus familiaris", "conditions": "in vivo, read-out: beta t1/2 (converted)"}, "[10]": {"test": "Volume of distribution at steady state in dog at 2.5 mg/kg, iv", "type": "ADME, organism-based, Canis lupus familiaris", "set-up": "dose 2.5 mg/kg, route intravenous", "conditions": "in vivo, read-out: Vdss"}, "[11]": {"test": "Plasma clearance in dog at 2.5 mg/kg, iv", "type": "ADME, organism-based, Canis lupus familiaris", "set-up": "dose 2.5 mg/kg, route intravenous"}, "[12]": {"test": "Cmax in po dosed dog", "type": "ADME, organism-based, Canis lupus familiaris", "set-up": "route oral", "conditions": "in vivo"}, "[13]": {"test": "Bioavailability in po dosed dog", "type": "ADME, organism-based, Canis lupus familiaris", "conditions": "in vivo"}, "[14]": {"target": "T3, Gastrin/cholecystokinin type B receptor (Canis lupus familiaris)", "test": "Inhibition of pentagastrin-stimulated gastric acid secretion in intraduodenal bolus dosed conscious dual gastric fistula dog", "type": "functional, organism-based", "conditions": "Stomach"}}}
{"compound": "CC(C)(C)C(=O)CN1C(=O)N(CC(=O)Nc2cccc(CC(=O)O)c2)N=C(C2CCCCC2)c2ccccc21", "values": [{"measurement": "Kb", "setting": "[1]", "value": 9.77, "unit": "nM"}, {"measurement": "Ki", "setting": "[2]", "value": 2.14, "unit": "nM"}, {"measurement": "Activity", "setting": "[3]", "value": "Dose-dependent effect"}, {"measurement": "Ki", "setting": "[4]", "value": "> 10000", "unit": "nM"}, {"measurement": "Ki", "setting": "[5]", "value": 5.25, "unit": "nM"}]}
{"compound": "CC(C)CC1=NN(CC(=O)Nc2cccc(C(=O)O)c2)C(=O)N(CC(=O)C(C)(C)C)c2ccccc21", "values": [{"measurement": "Ki", "setting": "[6]", "value": 89.1, "unit": "nM"}, {"measurement": "Ki", "setting": "[4]", "value": 7080, "unit": "nM"}]}
{"compound": "CC(C)(C)C(=O)CN1C(=O)N(CC(=O)Nc2cccc(-c3nc(=O)o[nH]3)c2)N=C(C2CCCCC2)c2ccccc21", "values": [{"measurement": "Activity", "setting": "[7]", "value": "Dose-dependent effect"}, {"measurement": "Ki", "setting": "[2]", "value": 0.2, "unit": "nM"}, {"measurement": "Ki", "setting": "[8]", "value": 589, "unit": "nM"}, {"measurement": "Ki", "setting": "[5]", "value": 4.47, "unit": "nM"}]}
{"compound": "CC1(C(=O)CN2C(=O)N(CC(=O)Nc3cccc(C(=O)O)c3)N=C(C3CCCCC3)c3ccccc32)CCCC1", "values": [{"measurement": "Ki", "setting": "[6]", "value": 1.2, "unit": "nM"}, {"measurement": "Ki", "setting": "[8]", "value": 3980, "unit": "nM"}]}
{"compound": "O=C(CN1N=C(C2CCCCC2)c2ccccc2N(CC(=O)C2CCCC2)C1=O)Nc1cccc(-c2nc(=O)o[nH]2)c1", "values": [{"measurement": "half-life", "setting": "[9]", "value": 4.1, "unit": "h"}, {"measurement": "Kb", "setting": "[1]", "value": 1.82, "unit": "nM"}, {"measurement": "Ki", "setting": "[2]", "value": 0.107, "unit": "nM"}, {"measurement": "Vd", "setting": "[10]", "value": 0.13, "unit": "L/kg"}, {"measurement": "clearance", "setting": "[11]", "value": 3.33, "unit": "mL/min/kg"}, {"measurement": "Cmax", "setting": "[12]", "value": 15, "unit": "µM"}, {"measurement": "Ki", "setting": "[8]", "value": 468, "unit": "nM"}, {"measurement": "bioavailability", "setting": "[13]", "value": 41, "unit": "%"}, {"measurement": "Ki", "setting": "[5]", "value": 4.47, "unit": "nM"}]}
{"compound": "O=C(CN1N=C(C2CCCCC2)c2ccccc2N(CC(=O)C2CCCC2)C1=O)Nc1cccc(-c2noc(=O)[nH]2)c1", "values": [{"measurement": "ID50", "setting": "[7]", "value": 0.016, "unit": "mg/kg"}, {"measurement": "ID50", "setting": "[3]", "value": "< 0.03", "unit": "mg/kg"}, {"measurement": "Activity", "setting": "[14]", "value": "Dose-dependent effect"}]}
